This passage reports EC50 results from patent publication US10689367B2, “Triazole pyridyl compounds as agonists of the APJ receptor” (AMGEN INC., priority 2016, dated 2020).

Chain of human APJ receptor (P35414 whole entry): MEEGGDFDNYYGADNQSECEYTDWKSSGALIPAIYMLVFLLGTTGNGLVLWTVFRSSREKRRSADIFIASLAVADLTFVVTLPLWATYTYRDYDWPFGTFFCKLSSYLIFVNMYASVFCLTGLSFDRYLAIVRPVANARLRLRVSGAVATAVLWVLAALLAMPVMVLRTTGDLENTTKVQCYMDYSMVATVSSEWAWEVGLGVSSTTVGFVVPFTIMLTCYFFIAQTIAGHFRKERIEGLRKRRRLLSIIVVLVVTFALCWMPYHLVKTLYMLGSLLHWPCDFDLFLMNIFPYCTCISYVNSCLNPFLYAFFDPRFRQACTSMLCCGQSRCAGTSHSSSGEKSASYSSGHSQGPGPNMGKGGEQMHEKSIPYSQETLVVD

The assay concerns the target human APJ receptor (Homo sapiens (Human), UniProt P35414). Briefly: [35S]GTPγS binding assay on membranes from CHO cells stably expressing human APJ receptor. Particulars: membranes of CHO cells stably expressing human APJ receptor, read-out: Activity hAPJ SPA EC50 IP. It is filed as biochemical. A digest of the protocol:
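[35S]GTPγS binding measured on membranes from CHO cells stably expressing FLAG-tagged human APJ, with GDP, MgCl2 and NaCl levels optimized beforehand. Incubation 90 min at RT, imager read-out; EC50 from non-linear regression, averaged over several independent experiments.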
For orientation: GTPγS resists hydrolysis and so accumulates on activated G proteins.
The term EC50 denotes the concentration needed to bring the measured effect to its halfway point. Regarding `COc1cccc(-c2nnc(NS(=O)(=O)[C@@H](C)[C@H](OC)c3ncc(Cl)cn3)n2CC2CCOC2)n1` (single isomer, unassigned) [Example 286.0, (1R,2S)-1-(5-chloropyrimidin-2-yl)-1-methoxy-N-(5-(6-methoxypyridin-2-yl)-4-(((R)-tetrahydrofuran-3-yl)methyl)-4H-1,2,4-triazol-3-yl)propane-2-sulfonamide or (1R,2S)-1-(5-chloropyrimidin-2-yl)-1-methoxy-N-(5-(6-methoxypyridin-2-yl)-4-(((S)-tetrahydrofuran-3-yl)methyl)-4H-1,2,4-triazol-3-yl)propane-2-sulfonamide], the half-maximal effective concentration (EC50) was 0.055 µM.

For the compound `COc1cccc(-c2nnc(NS(=O)(=O)[C@@H](C)[C@H](OC)c3ncc(Cl)cn3)n2[C@@H]2CC[C@H]2OC)n1` (single isomer, unassigned) [Example 162.0, (1R,2S)-1-(5-Chloropyrimidin-2-yl)-1-methoxy-N-(4-((1R,2R)-2-methoxycyclobutyl)-5-(6-methoxypyridin-2-yl)-4H-1,2,4-triazol-3-yl)propane-2-sulfonamide or (1R,2S)-1-(5-chloropyrimidin-2-yl)-1-methoxy-N-(4-((1S,2S)-2-methoxycyclobutyl)-5-(6-methoxypyridin-2-yl)-4H-1,2,4-triazol-3-yl)propane-2-sulfonamide], the 50% effective concentration (EC50) was 0.0028 µM.

In the case of `COCC1(n2c(NS(=O)(=O)[C@@H](C)[C@@H](OC(C)C)c3ncc(C)cn3)nnc2-c2cncc(C)c2)CC1` [Example 63.0], the EC50 turned out to be 0.02 µM.

For `CC[C@@H](c1c(C)noc1C)n1c(NS(=O)(=O)[C@@H](C)[C@H](OC)c2cnc(C)cn2)nnc1-c1cccc(OC)n1` (single isomer, unassigned) [Example 222.0, (1R,2S)-N-(4-((1S)-1-(3,5-dimethyl-1,2-oxazol-4-yl)propyl)-5-(6-methoxy-2-pyridinyl)-4H-1,2,4-triazol-3-yl)-1-methoxy-1-(5-methyl-2-pyrazinyl)-2-propanesulfonamide or (1R,2S)-N-(4-((1R)-1-(3,5-dimethyl-1,2-oxazol-4-yl)propyl)-5-(6-methoxy-2-pyridinyl)-4H-1,2,4-triazol-3-yl)-1-methoxy-1-(5-methyl-2-pyrazinyl)-2-propanesulfonamide], the concentration giving a half-maximal response (EC50) is 0.058 µM.

Turning to `COc1cccc(-c2nnc(NS(=O)(=O)[C@@H](C)[C@H](OC)c3ncc(Cl)cn3)n2[C@H](C)c2cncc(F)c2)n1` (single isomer, unassigned) [Example 349.0, (1R,2S)-1-(5-chloropyrimidin-2-yl)-N-(4-((R)-1-(5-fluoropyridin-3-yl)ethyl)-5-(6-methoxypyridin-2-yl)-4H-1,2,4-triazol-3-yl)-1-methoxypropane-2-sulfonamide or (1R,2S)-1-(5-chloropyrimidin-2-yl)-N-(4-((S)-1-(5-fluoropyridin-3-yl)ethyl)-5-(6-methoxypyridin-2-yl)-4H-1,2,4-triazol-3-yl)-1-methoxypropane-2-sulfonamide], the EC50 is 0.00043 µM.

Take `COc1cccc(-c2nnc(NS(=O)(=O)[C@@H](C)[C@H](C)c3ncc(Cl)cn3)n2[C@@H](C)c2ccno2)n1` (single isomer, unassigned) [Example 214.0, (2S,3R)-3-(5-chloro-2-pyrimidinyl)-N-(5-(6-methoxy-2-pyridinyl)-4-((1S)-1-(1,2-oxazol-5-yl)ethyl)-4H-1,2,4-triazol-3-yl)-2-butanesulfonamide or (2S,3R)-3-(5-chloro-2-pyrimidinyl)-N-(5-(6-methoxy-2-pyridinyl)-4-((1R)-1-(1,2-oxazol-5-yl)ethyl)-4H-1,2,4-triazol-3-yl)-2-butanesulfonamide]: the EC50 stood at 0.0029 µM.

In the case of `COc1cccc(-c2nnc(NS(=O)(=O)[C@@H](C)[C@H](C)c3ncc(Cl)cn3)n2[C@@H](C)c2ncc(C)o2)n1` (single isomer, unassigned) [Example 257.0, (2S,3R)-3-(5-chloro-2-pyrimidinyl)-N-(5-(6-methoxy-2-pyridinyl)-4-((1S)-1-(5-methyl-1,3-oxazol-2-yl)ethyl)-4H-1,2,4-triazol-3-yl)-2-butanesulfonamide or (2S,3R)-3-(5-chloro-2-pyrimidinyl)-N-(5-(6-methoxy-2-pyridinyl)-4-((1R)-1-(5-methyl-1,3-oxazol-2-yl)ethyl)-4H-1,2,4-triazol-3-yl)-2-butanesulfonamide], the EC50 was 0.016 µM.

Regarding `COc1cccc(-c2nnc(NS(=O)(=O)[C@@H](C)[C@H](OC)c3ncc(Cl)cn3)n2[C@H](C)c2cncnc2)n1` (single isomer, unassigned) [Example 336.0, (1R,2S)-1-(5-chloropyrimidin-2-yl)-1-methoxy-N-(5-(6-methoxypyridin-2-yl)-4-((R)-1-(pyrimidin-5-yl)ethyl)-4H-1,2,4-triazol-3-yl)propane-2-sulfonamide or (1R,2S)-1-(5-chloropyrimidin-2-yl)-1-methoxy-N-(5-(6-methoxypyridin-2-yl)-4-((S)-1-(pyrimidin-5-yl)ethyl)-4H-1,2,4-triazol-3-yl)propane-2-sulfonamide], the EC50 was 0.015 µM.

Consider `COCC1(n2c(NS(=O)(=O)[C@@H](C)[C@@H](OC(C)C)c3ncc(C)cn3)nnc2-c2ccccn2)CC1` [Example 65.0], for which the EC50 is 0.024 µM.

For the compound `COc1cccc(-c2nnc(NS(=O)(=O)[C@@H](C)[C@H](OC)c3ncc(Cl)cn3)n2[C@H](C)[C@@H]2CCCCO2)n1` (single isomer, unassigned) [Example 318.0], the EC50 stood at 0.0024 µM.

Regarding `COc1cccc(-c2nnc(NS(=O)(=O)[C@@H](C)[C@@H](OC(C)C)c3ncc(C)cn3)n2[C@@H](C)c2ccon2)n1` (single isomer, unassigned) [Example 269.0, (1S,2S)-1-isopropoxy-N-(4-((R)-1-(isoxazol-3-yl)ethyl)-5-(6-methoxypyridin-2-yl)-4H-1,2,4-triazol-3-yl)-1-(5-methylpyrimidin-2-yl)propane-2-sulfonamide or (1S,2S)-1-isopropoxy-N-(4-((S)-1-(isoxazol-3-yl)ethyl)-5-(6-methoxypyridin-2-yl)-4H-1,2,4-triazol-3-yl)-1-(5-methylpyrimidin-2-yl)propane-2-sulfonamide], the EC50 was found to be 0.017 µM.

Take `CO[C@H](c1ncc(Cl)cn1)[C@H](C)S(=O)(=O)Nc1nnc(-c2cncc(C)c2)n1Cc1ccon1` [Example 262.0, (1R,2S)-1-(5-chloropyrimidin-2-yl)-N-(4-(isoxazol-3-ylmethyl)-5-(5-methylpyridin-3-yl)-4H-1,2,4-triazol-3-yl)-1-methoxypropane-2-sulfonamide]: the EC50 came to 0.2 µM.

Take `COc1cccc(-c2nnc(NS(=O)(=O)[C@@H](C)[C@H](OC)c3ncc(Cl)cn3)n2C(CO)CO)n1` [Example 5.0, (1R,2S)-1-(5-chloro-2-pyrimidinyl)-N-(4-(2-hydroxy-1-(hydroxymethyl)ethyl)-5-(6-methoxy-2-pyridinyl)-4H-1,2,4-triazol-3-yl)-1-methoxy-2-propanesulfonamide]: the EC50 is 0.05 µM.

Turning to `COC[C@@H](C)n1c(NS(=O)(=O)[C@@H](C)[C@H](OC)c2ncc(Cl)cn2)nnc1-c1cccnc1` [Example 125.0], the EC50 is 0.09 µM.

With `COC[C@@H](C)n1c(NS(=O)(=O)[C@@H](C)[C@H](OC)c2ncc(Cl)cn2)nnc1-c1cccc(OC)n1` [Example 49.0], the EC50 was 0.00088 µM.

Turning to `COc1cccc(-c2nnc(NS(=O)(=O)[C@@H](C)[C@H](OC)c3ncc(Cl)cn3)n2C2(C3CC3)CC2)n1` [Example 107.0], the EC50 stood at 0.00042 µM.

On to `COc1cccc(-c2nnc(NS(=O)(=O)[C@@H](C)[C@@H](OC(C)C)c3ncc(C)cn3)n2[C@H](C)[C@@H]2CCCCO2)n1` (single isomer, unassigned) [Example 322.0], for which the EC50 worked out at 0.0012 µM.

Take `COc1cccc(-c2nnc(NS(=O)(=O)[C@@H](C)[C@H](OC)c3ncc(Cl)cn3)n2[C@@H](C)c2ncc(C)o2)n1` (single isomer, unassigned) [Example 255.0, (1R,2S)-1-(5-chloro-2-pyrimidinyl)-1-methoxy-N-(5-(6-methoxy-2-pyridinyl)-4-((1S)-1-(5-methyl-1,3-oxazol-2-yl)ethyl)-4H-1,2,4-triazol-3-yl)-2-propanesulfonamide or (1R,2S)-1-(5-chloro-2-pyrimidinyl)-1-methoxy-N-(5-(6-methoxy-2-pyridinyl)-4-((1R)-1-(5-methyl-1,3-oxazol-2-yl)ethyl)-4H-1,2,4-triazol-3-yl)-2-propanesulfonamide]: the 50% effective concentration (EC50) came out at 0.0075 µM.

As for `COc1cccc(-c2nnc(NS(=O)(=O)[C@@H](C)[C@H](OC)c3ncc(Cl)cn3)n2C[C@H]2CCCO2)n1` (single isomer, unassigned) [Example 280.0, (1R,2S)-1-(5-chloropyrimidin-2-yl)-1-methoxy-N-(5-(6-methoxypyridin-2-yl)-4-(((R)-tetrahydrofuran-2-yl)methyl)-4H-1,2,4-triazol-3-yl)propane-2-sulfonamide or (1R,2S)-1-(5-chloropyrimidin-2-yl)-1-methoxy-N-(5-(6-methoxypyridin-2-yl)-4-(((S)-tetrahydrofuran-2-yl)methyl)-4H-1,2,4-triazol-3-yl)propane-2-sulfonamide], the EC50 turned out to be 0.021 µM.

`COCC(COC)n1c(NS(=O)(=O)[C@@H](C)[C@H](OC)c2ncc(Cl)cn2)nnc1-c1ccccn1` [Example 14.0, (1R,2S)-1-(5-chloro-2-pyrimidinyl)-N-(4-(1,3-dimethoxy-2-propanyl)-5-(2-pyridinyl)-4H-1,2,4-triazol-3-yl)-1-methoxy-2-propanesulfonamiide]: the 50% effective concentration (EC50) is 0.0064 µM.

As to `CC[C@H]([C@@H]1CCCCO1)n1c(NS(=O)(=O)[C@@H](C)[C@H](OC)c2ncc(C)cn2)nnc1-c1cccc(OC)n1` (single isomer, unassigned) [Example 329.0], the EC50 was 0.0014 µM.
